Assay results as given in US20260250290A1 (BRISTOL-MYERS SQUIBB COMPANY, priority 2023, published 2026).
Counter-ions that a name gives are not always drawn.

Each compound was assayed against T1, SGK1 (Homo sapiens, UniProt O00141) (assay: SGK1 inhibition Assay B (Echo mass spectrometry of phosphorylated peptide product)). Conditions: 60 min at room temperature.
T1 sequence (O00141 1-431): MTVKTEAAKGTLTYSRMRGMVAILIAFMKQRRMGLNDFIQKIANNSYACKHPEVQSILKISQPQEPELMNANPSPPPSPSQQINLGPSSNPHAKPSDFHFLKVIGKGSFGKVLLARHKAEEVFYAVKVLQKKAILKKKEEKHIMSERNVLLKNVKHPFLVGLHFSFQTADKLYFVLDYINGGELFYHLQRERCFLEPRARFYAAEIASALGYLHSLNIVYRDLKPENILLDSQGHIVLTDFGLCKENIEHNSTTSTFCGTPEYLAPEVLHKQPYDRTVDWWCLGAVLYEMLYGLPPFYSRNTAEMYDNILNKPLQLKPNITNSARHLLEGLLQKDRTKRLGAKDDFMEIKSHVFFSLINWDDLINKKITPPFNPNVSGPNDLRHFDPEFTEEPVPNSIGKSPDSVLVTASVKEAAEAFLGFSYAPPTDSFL
Assay type: biochemical

Row | IC50 [nM] | SMILES
1 | 2 | CN1C2CCC1CC(Oc1cc(Cl)sc1C(=O)NC1CCCN(c3cc(-c4cnn(C(F)F)c4)n4ncnc(N)c34)C1)C2 [Example 836, N-((R)-1-(4-amino-7-(1-(difluoromethyl)-1H-pyrazol-4-yl)pyrrolo[2,1-f][1,2,4]triazin-5-yl)piperidin-3-yl)-5-chloro-3-(((1R,3s,5S)-8-methyl-8-azabicyclo[3.2.1]octan-3-yl)oxy)thiophene-2-carboxamide]
2 | 37 | CC(=O)N1CC=C(c2cc(N3CCC[C@@H](NC(=O)c4sc(Cl)cc4OC4CC5COCC(C4)N5CCO)C3)c3c(N)ncnn23)C1 (stereo partly drawn) [Example 986]
3 | 0.9 | CC(=O)N1CC=C(c2cc(N3CCC[C@@H](NC(=O)c4sc(Cl)cc4OC4CC5COCC(C4)N5)C3)c3c(N)ncnn23)C1 (stereo partly drawn) [Example 986E, 3-((3-Oxa-9-azabicyclo[3.3.1]nonan-7-yl)oxy)-N—((R)-1-(7-(1-acetyl-2,5-dihydro-1H-pyrrol-3-yl)-4-aminopyrrolo[2,1-f][1,2,4]triazin-5-yl)piperidin-3-yl)-5-chlorothiophene-2-carboxamide]

Further lines, the compound ahead of its results:

Row | SMILES | IC50 [nM]
4 | CCOC1=C(C(=O)N[C@@H]2CCCN(c3cc(C4=CCN(C(C)=O)C4)n4ncnc(N)c34)C2)CN(c2ccccc2)C1=O [Example 758, (R)-N-(1-(7-(1-acetyl-2,5-dihydro-1H-pyrrol-3-yl)-4-aminopyrrolo[2,1-f][1,2,4]triazin-5-yl)piperidin-3-yl)-4-ethoxy-5-oxo-1-phenyl-2,5-dihydro-1H-pyrrole-3-carboxamide, TFA salt] | 143
5 | [2H]C([2H])([2H])N(C1CCC(Oc2nc(C)sc2C(=O)N[C@@H]2CCCN(c3cc(-c4ccnc(OC)n4)n4ncnc(N)c34)C2)CC1)C([2H])([2H])[2H] (stereo partly drawn) [Example 1031, (R)—N-(1-(4-amino-7-(2-methoxypyrimidin-4-yl)pyrrolo[2,1-f][1,2,4]triazin-5-yl)piperidin-3-yl)-4-((4-(bis(methyl-d3)amino)cyclohexyl)oxy)-2-methylthiazole-5-carboxamide] | 1.1
6 | CC(C)N1CC2(CN(c3cccc(C(=O)N[C@@H]4CCCN(c5cc(-c6cnc(-n7cnnn7)c(F)c6)n6ncnc(N)c56)C4)n3)C2)C1 [Example 830, (R)-N-(1-(4-amino-7-(5-fluoro-6-(1H-tetrazol-1-yl)pyridin-3-yl)pyrrolo[2,1-f][1,2,4]triazin-5-yl)piperidin-3-yl)-6-(6-isopropyl-2,6-diazaspiro[3.3]heptan-2-yl)picolinamide] | 4
7 | Cc1nc(O[C@@H]2C[C@H]3CC[C@@H](C2)N3C(C)C)c(C(=O)N[C@@H]2CCCN(c3cc(-c4ccc(C(N)=O)c(OCC(F)F)n4)n4ncnc(N)c34)C2)s1 [Example 956, N—((R)-1-(4-Amino-7-(5-carbamoyl-6-(2,2-difluoroethoxy)pyridin-2-yl)pyrrolo[2,1-f][1,2,4]triazin-5-yl)piperidin-3-yl)-4-(((1R,3s,5S)-8-isopropyl-8-azabicyclo[3.2.1]octan-3-yl)oxy)-2-methylthiazole-5-carboxamide] | 2
8 | Cc1cc(O[C@@H]2C[C@H]3CC[C@@H](C2)N3C)c(C(=O)N[C@@H]2CCCN(c3cc(-c4cnc(-n5cnnn5)c(F)c4)n4ncnc(N)c34)C2)s1 [Example 845, N-((R)-1-(4-amino-7-(5-fluoro-6-(1H-tetrazol-1-yl)pyridin-3-yl)pyrrolo[2,1-f][1,2,4]triazin-5-yl)piperidin-3-yl)-5-methyl-3-(((1R,3s,5S)-8-methyl-8-azabicyclo[3.2.1]octan-3-yl)oxy)thiophene-2-carboxamide, TFA salt] | 3
9 | Cc1nc(OC2CCC(N3CCC3)CC2)c(C(=O)N[C@@H]2CCCN(c3cc(C#N)n4ncnc(N)c34)C2)s1 (stereo partly drawn) [Example 1049, (R)—N-(1-(4-amino-7-cyanopyrrolo[2,1-f][1,2,4]triazin-5-yl)piperidin-3-yl)-4-((4-(azetidin-1-yl)cyclohexyl)oxy)-2-methylthiazole-5-carboxamide] | 1.9
